Assays:
peas = assay: Herbicidal bioassay, peas (% necrosis); type: in vivo
Outline: (§1)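 Scoring of % necrosis followed EPPO guideline PP1/135 at specified growth intervals, five replicates per species and treatment. Plants at the 2-4 true leaf stage received Potter-tower sprays of DMSO-diluted compounds across six levels from 0.0001% to 0.05%, with water and DMSO controls.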

barley = assay: Herbicidal bioassay, barley (% necrosis); type: in vivo
Outline: as §1

CC(=O)OCC(C)Oc1ccc(Oc2ccc(C(F)(F)F)cn2)cc1 (stereo not drawn) [Compound 63, 2-[4-[[5-(Trifluoromethyl)-2-pyridyl]oxy]phenoxy]propyl acetate]
Sum of % necrosis in Peas (peas; Dose 0.000001, Day 0): C (less than 50% necrosis)
Sum of % necrosis in Peas (peas; Dose 0.000001, Day 1): C (less than 50% necrosis)
Sum of % necrosis in Peas (peas; Dose 0.000001, Day 3): C (less than 50% necrosis)
Sum of % necrosis in Peas (peas; Dose 0.000001, Day 7): C (less than 50% necrosis)
Sum of % necrosis in Peas (peas; Dose 0.000001, Day 10): B (50%-80% necrosis)
Sum of % necrosis in Peas (peas; Dose 0.000001, Day 14): B (50%-80% necrosis)
Sum of % necrosis in Peas (peas; Dose 0.000001, Day 21): A (over 80% necrosis)
Sum of % necrosis in Peas (peas; Dose 0.000005, Day 0): C (less than 50% necrosis)
Sum of % necrosis in Peas (peas; Dose 0.000005, Day 1): C (less than 50% necrosis)
Sum of % necrosis in Peas (peas; Dose 0.000005, Day 3): C (less than 50% necrosis)
Sum of % necrosis in Peas (peas; Dose 0.000005, Day 7): C (less than 50% necrosis)
Sum of % necrosis in Peas (peas; Dose 0.000005, Day 10): B (50%-80% necrosis)
Sum of % necrosis in Peas (peas; Dose 0.000005, Day 14): B (50%-80% necrosis)
Sum of % necrosis in Peas (peas; Dose 0.000005, Day 21): A (over 80% necrosis)
Sum of % necrosis in Peas (peas; Dose 0.00001, Day 0): C (less than 50% necrosis)
Sum of % necrosis in Peas (peas; Dose 0.00001, Day 1): C (less than 50% necrosis)
Sum of % necrosis in Peas (peas; Dose 0.00001, Day 3): C (less than 50% necrosis)
Sum of % necrosis in Peas (peas; Dose 0.00001, Day 7): C (less than 50% necrosis)
Sum of % necrosis in Peas (peas; Dose 0.00001, Day 10): B (50%-80% necrosis)
Sum of % necrosis in Peas (peas; Dose 0.00001, Day 14): B (50%-80% necrosis)
Sum of % necrosis in Peas (peas; Dose 0.00001, Day 21): A (over 80% necrosis)
Sum of % necrosis in Peas (peas; Dose 0.00005, Day 0): C (less than 50% necrosis)
Sum of % necrosis in Peas (peas; Dose 0.00005, Day 1): C (less than 50% necrosis)
Sum of % necrosis in Peas (peas; Dose 0.00005, Day 3): C (less than 50% necrosis)
Sum of % necrosis in Peas (peas; Dose 0.00005, Day 7): B (50%-80% necrosis)
Sum of % necrosis in Peas (peas; Dose 0.00005, Day 10): A (over 80% necrosis)
Sum of % necrosis in Peas (peas; Dose 0.00005, Day 14): A (over 80% necrosis)
Sum of % necrosis in Peas (peas; Dose 0.00005, Day 21): A (over 80% necrosis)
Sum of % necrosis in Peas (peas; Dose 0.0001, Day 0): C (less than 50% necrosis)
Sum of % necrosis in Peas (peas; Dose 0.0001, Day 1): C (less than 50% necrosis)
Sum of % necrosis in Peas (peas; Dose 0.0001, Day 3): C (less than 50% necrosis)
Sum of % necrosis in Peas (peas; Dose 0.0001, Day 7): C (less than 50% necrosis)
Sum of % necrosis in Peas (peas; Dose 0.0001, Day 10): C (less than 50% necrosis)
Sum of % necrosis in Peas (peas; Dose 0.0001, Day 14): B (50%-80% necrosis)
Sum of % necrosis in Peas (peas; Dose 0.0001, Day 21): B (50%-80% necrosis)
Sum of % necrosis in Peas (peas; Dose 0.0005, Day 0): C (less than 50% necrosis)
Sum of % necrosis in Peas (peas; Dose 0.0005, Day 1): C (less than 50% necrosis)
Sum of % necrosis in Peas (peas; Dose 0.0005, Day 3): C (less than 50% necrosis)
Sum of % necrosis in Peas (peas; Dose 0.0005, Day 7): C (less than 50% necrosis)
Sum of % necrosis in Peas (peas; Dose 0.0005, Day 10): B (50%-80% necrosis)
Sum of % necrosis in Peas (peas; Dose 0.0005, Day 14): B (50%-80% necrosis)
Sum of % necrosis in Peas (peas; Dose 0.0005, Day 21): B (50%-80% necrosis)
Sum of % necrosis in barley (barley; Dose 0.000001, Day 0): C (less than 50% necrosis)
Sum of % necrosis in barley (barley; Dose 0.000001, Day 1): C (less than 50% necrosis)
Sum of % necrosis in barley (barley; Dose 0.000001, Day 3): C (less than 50% necrosis)
Sum of % necrosis in barley (barley; Dose 0.000001, Day 7): C (less than 50% necrosis)
Sum of % necrosis in barley (barley; Dose 0.000001, Day 10): C (less than 50% necrosis)
Sum of % necrosis in barley (barley; Dose 0.000001, Day 14): C (less than 50% necrosis)
Sum of % necrosis in barley (barley; Dose 0.000001, Day 21): C (less than 50% necrosis)
Sum of % necrosis in barley (barley; Dose 0.000005, Day 0): C (less than 50% necrosis)
Sum of % necrosis in barley (barley; Dose 0.000005, Day 1): C (less than 50% necrosis)
Sum of % necrosis in barley (barley; Dose 0.000005, Day 3): C (less than 50% necrosis)
Sum of % necrosis in barley (barley; Dose 0.000005, Day 7): C (less than 50% necrosis)
Sum of % necrosis in barley (barley; Dose 0.000005, Day 10): C (less than 50% necrosis)
Sum of % necrosis in barley (barley; Dose 0.000005, Day 14): C (less than 50% necrosis)
Sum of % necrosis in barley (barley; Dose 0.000005, Day 21): C (less than 50% necrosis)
Sum of % necrosis in barley (barley; Dose 0.00001, Day 0): C (less than 50% necrosis)
Sum of % necrosis in barley (barley; Dose 0.00001, Day 1): C (less than 50% necrosis)
Sum of % necrosis in barley (barley; Dose 0.00001, Day 3): C (less than 50% necrosis)
Sum of % necrosis in barley (barley; Dose 0.00001, Day 7): C (less than 50% necrosis)
Sum of % necrosis in barley (barley; Dose 0.00001, Day 10): C (less than 50% necrosis)
Sum of % necrosis in barley (barley; Dose 0.00001, Day 14): C (less than 50% necrosis)
Sum of % necrosis in barley (barley; Dose 0.00001, Day 21): C (less than 50% necrosis)
Sum of % necrosis in barley (barley; Dose 0.00005, Day 0): C (less than 50% necrosis)
Sum of % necrosis in barley (barley; Dose 0.00005, Day 1): C (less than 50% necrosis)
Sum of % necrosis in barley (barley; Dose 0.00005, Day 3): C (less than 50% necrosis)
Sum of % necrosis in barley (barley; Dose 0.00005, Day 7): C (less than 50% necrosis)
Sum of % necrosis in barley (barley; Dose 0.00005, Day 10): C (less than 50% necrosis)
Sum of % necrosis in barley (barley; Dose 0.00005, Day 14): B (50%-80% necrosis)
Sum of % necrosis in barley (barley; Dose 0.00005, Day 21): B (50%-80% necrosis)
Sum of % necrosis in barley (barley; Dose 0.0001, Day 0): C (less than 50% necrosis)
Sum of % necrosis in barley (barley; Dose 0.0001, Day 1): C (less than 50% necrosis)
Sum of % necrosis in barley (barley; Dose 0.0001, Day 3): C (less than 50% necrosis)
Sum of % necrosis in barley (barley; Dose 0.0001, Day 7): C (less than 50% necrosis)
Sum of % necrosis in barley (barley; Dose 0.0001, Day 10): C (less than 50% necrosis)
Sum of % necrosis in barley (barley; Dose 0.0001, Day 14): C (less than 50% necrosis)
Sum of % necrosis in barley (barley; Dose 0.0001, Day 21): C (less than 50% necrosis)
Sum of % necrosis in barley (barley; Dose 0.0005, Day 0): C (less than 50% necrosis)
Sum of % necrosis in barley (barley; Dose 0.0005, Day 1): C (less than 50% necrosis)
Sum of % necrosis in barley (barley; Dose 0.0005, Day 3): C (less than 50% necrosis)
Sum of % necrosis in barley (barley; Dose 0.0005, Day 7): C (less than 50% necrosis)
Sum of % necrosis in barley (barley; Dose 0.0005, Day 10): C (less than 50% necrosis)
Sum of % necrosis in barley (barley; Dose 0.0005, Day 14): C (less than 50% necrosis)
Sum of % necrosis in barley (barley; Dose 0.0005, Day 21): C (less than 50% necrosis)
